This assay has as its system Primary hippocampal neurons. Put plainly: Synaptophysin synapse assay in primary hippocampal neurons treated with oligomeric Aβ. The settings on record: 5 μM oligomeric Aβ, 500 nM, 4 h. The assay is classed as cell-based, mouse. Here is the method: Primary hippocampal neurons were isolated from E17.5 mouse embryos (C57BL/6J, The Jackson Laboratory, Bar Harbor, ME, USA) as previously described and cultured with Neurobasal medium containing 2% B27, 1X GlutaMax, 10 mM HEPES and 1% PenStrep. Cells were maintained in a humified incubator at 37 °C and 5% CO2. For TUNEL assay, cells were left in culture for 16–18 days and then treated with 5 μM oligomeric Aβ along with ENT-A013 (500 nM, every 24 h) for 48 h. Cells were then fixed with 4% PFA and labelled with TUNEL (F. Hoffmann–La Roche Ltd., Basel, Switzerland, cat# 11684795910) following the manufacturer’s protocol. Subsequently, cells were immunostained against Tuj1 and imaged with confocal microscopy. For synaptic plasticity assay, cells were left in culture for 16–18 days and then treated with 5 μM oligomeric Aβ along with ENT-A013 (500 nM) for 4 h. Cells were then fixed with 4% PFA and immunostained against Tuj1 and Synaptophysin (1:1000, PA1-1043, Invitrogen, Waltham, MA, USA), anti-mouse Alexa fluor 488 (1:1000, A-11029, Invitrogen, Waltham, MA, USA) and anti-rabbit Alexa fluor 546 (1:1000, A10040, Invitrogen, Waltham, MA, USA). Images were acquired using confocal microscopy and the total area of synaptophysin positive puncta was measured and normalized to Tuj1 total area.

With `CC12CCC(O)CC1=CCC1C2CCC2(C)C1CCC21CC1C=CBr` [ENT-A013, (2′R,3S,17S)-2′-(2-Bromovinyl)-5-Androstene-17,1′-Cyclopropan-3-ol], the “synapse number (synaptophysin area normalized to Tuj1 area)” value is on record as 1.08 ± 0.08 % of control FC.

Source of the values: PMC8945229, “Development and Biological Characterization of a Novel Selective TrkA Agonist with Neuroprotective Properties against Amyloid Toxicity” (Biomedicines, 2022).
